Laboratory results from US11173162B2, “Bicyclic heterocycles as FGFR4 inhibitors” (Incyte Corporation, priority 2015, dated 2021).

These compounds were tested on FGFR3 enzyme (assay: FGFR Enzymatic Assay (FRET peptide phosphorylation), FGFR3). Settings: IC50 ratio showing FGFR3 selectivity; Table 2A, pre-incubated for 4 hours.
Format: biochemical
Procedure: The inhibitor potency of the exemplified compounds was measured in an enzyme assay that measures peptide phosphorylation using FRET measurements to detect product formation. Inhibitors were serially diluted in DMSO and a volume of 0.5 μL was transferred to the wells of a 384-well plate.
GraphPad prism3 was used to analyze the data.

| Compound | FGFR1/FGFR3 | FGFR4/FGFR3 |
| --- | --- | --- |
| COc1cc(OC)c(F)c(N2Cc3cnc(-c4cn(C)nc4C)cc3N(c3cncc(C)n3)C2=O)c1F [Example 87, 3-(2,6-difluoro-3,5-dimethoxyphenyl)-7-(1,3-dimethyl-1H-pyrazol-4-yl)-1-(6-methylpyrazin-2-yl)-3,4-dihydropyrido[4,3-d]pyrimidin-2(1H)-one] | >5 | >10 |
| COc1cc(OC)c(F)c(N2Cc3cnc(-c4cn(C)nc4C)cc3N(C3CC3)C2=O)c1F [Example 83, 1-cyclopropyl-3-(2,6-difluoro-3,5-dimethoxyphenyl)-7-(1,3-dimethyl-1H-pyrazol-4-yl)-3,4-dihydropyrido[4,3-d]pyrimidin-2(1H)-one] | >5 | >5 |
| COc1cc(OC)c(F)c(N2Cc3cnc(-c4csc(N(C)C)n4)cc3C3(CC3)C2=O)c1F [Example 160, 2′-(2,6-difluoro-3,5-dimethoxyphenyl)-6′-(2-(dimethylamino)thiazol-4-yl)-1′H-spiro[cyclopropane-1,4′-[2,7]naphthyridin]-3′(2′H)-one] | >5 | >5 |
| COc1cc(OC)c(F)c(N2Cc3cnc(-c4ccc(C5(C#N)CCC5)nc4)cc3N(c3ccncn3)C2=O)c1F [Example 135, 1-(5-(3-(2,6-difluoro-3,5-dimethoxyphenyl)-2-oxo-1-(pyrimidin-4-yl)-1,2,3,4-tetrahydropyrido[4,3-d]pyrimidin-7-yl)pyridin-2-yl)cyclobutanecarbonitrile] | >5 | >10 |
| COc1cc(OC)c(F)c(N2Cc3cnc(-c4cn(CC#N)nc4C)cc3C3(CC3)C2=O)c1F [Example 153, 2-(4-(2′-(2,6-difluoro-3,5-dimethoxyphenyl)-3′-oxo-2′,3′-dihydro-1′H-spiro[cyclopropane-1,4′-[2,7]naphthyridine]-6′-yl)-3-methyl-1H-pyrazol-1-yl)acetonitrile] | >5 | >3 |
| COc1cc(OC)c(F)c(N2Cc3cnc(-c4cn(C)nc4C)cc3N(Cc3nnc(C)o3)C2=O)c1F [Example 46, 3-(2,6-difluoro-3,5-dimethoxyphenyl)-7-(1,3-dimethyl-1H-pyrazol-4-yl)-1-[(5-methyl-1,3,4-oxadiazol-2-yl)methyl]-3,4-dihydropyrido[4,3-d]pyrimidin-2(1H)-one] | >10 | >10 |
| CCn1cc(CN2C(=O)N(c3c(F)c(OC)cc(OC)c3F)Cc3cnc(-c4cn(C)nc4C)cc32)cn1 [Example 39, 3-(2,6-difluoro-3,5-dimethoxyphenyl)-7-(1,3-dimethyl-1H-pyrazol-4-yl)-1-((1-ethyl-1H-pyrazol-4-yl)methyl)-3,4-dihydropyrido[4,3-d]pyrimidin-2(1H)-one] | >10 | >10 |
| COc1cc(N2C(=O)N(c3c(F)c(OC)cc(OC)c3F)Cc3cnc(-c4cn(C)nc4C)cc32)ccc1C#N [Example 81, 4-(3-(2,6-difluoro-3,5-dimethoxyphenyl)-7-(1,3-dimethyl-1H-pyrazol-4-yl)-2-oxo-3,4-dihydropyrido[4,3-d]pyrimidin-1(2H)-yl)-2-methoxybenzonitrile] | >5 | >10 |
| COc1cnc(N2C(=O)N(c3c(F)c(OC)cc(OC)c3F)Cc3cnc(-c4cn(C)nc4C)cc32)cn1 [Example 112, 3-(2,6-difluoro-3,5-dimethoxyphenyl)-7-(1,3-dimethyl-1H-pyrazol-4-yl)-1-(5-methoxypyrazin-2-yl)-3,4-dihydropyrido[4,3-d]pyrimidin-2(1H)-one] | >3 | >5 |
| COc1cc(OC)c(F)c(N2Cc3cnc(-c4cn(C)nc4C)cc3N(CC3CCOCC3)C2=O)c1F [Example 37, 3-(2,6-difluoro-3,5-dimethoxyphenyl)-7-(1,3-dimethyl-1H-pyrazol-4-yl)-1-((tetrahydro-2H-pyran-4-yl)methyl)-3,4-dihydropyrido[4,3-d]pyrimidin-2(1H)-one] | >1 | >10 |
| COc1ccc(N2C(=O)N(c3c(F)c(OC)cc(OC)c3F)Cc3cnc(-c4cn(C)nc4C)cc32)cc1 [Example 104, 3-(2,6-difluoro-3,5-dimethoxyphenyl)-7-(1,3-dimethyl-1H-pyrazol-4-yl)-1-(4-methoxyphenyl)-3,4-dihydropyrido[4,3-d]pyrimidin-2(1H)-one] | >3 | >5 |
| COc1cc(OC)c(F)c(N2Cc3cnc(-c4cn(C)nc4C)cc3N(Cc3cc(C)on3)C2=O)c1F [Example 31, 3-(2,6-difluoro-3,5-dimethoxyphenyl)-7-(1,3-dimethyl-1H-pyrazol-4-yl)-1-((5-methylisoxazol-3-yl)methyl)-3,4-dihydropyrido[4,3-d]pyrimidin-2(1H)-one] | >5 | >10 |
| COc1cc(OC)c(F)c(N2Cc3cnc(-c4cn(C)nc4C)cc3N(c3cncnc3)C2=O)c1F [Example 61, 3-(2,6-difluoro-3,5-dimethoxyphenyl)-7-(1,3-dimethyl-1H-pyrazol-4-yl)-1-(pyrimidin-5-yl)-3,4-dihydropyrido[4,3-d]pyrimidin-2(1H)-one] | >10 | >5 |
| COc1ccc(CN2C(=O)N(c3c(F)c(OC)cc(OC)c3F)Cc3cnc(-c4cn(C)nc4C)cc32)cn1 [Example 59, 3-(2,6-difluoro-3,5-dimethoxyphenyl)-7-(1,3-dimethyl-1H-pyrazol-4-yl)-1-((6-methoxypyridin-3-yl)methyl)-3,4-dihydropyrido[4,3-d]pyrimidin-2(1H)-one] | >10 | >10 |
| CCc1nnc(CN2C(=O)N(c3c(F)c(OC)cc(OC)c3F)Cc3cnc(-c4cn(C)nc4C)cc32)o1 [Example 67, 3-(2,6-difluoro-3,5-dimethoxyphenyl)-7-(1,3-dimethyl-1H-pyrazol-4-yl)-1-((5-ethyl-1,3,4-oxadiazol-2-yl)methyl)-3,4-dihydropyrido[4,3-d]pyrimidin-2(1H)-one] | >5 | >10 |
| COc1cc(OC)c(F)c(N2Cc3cnc(-c4cnn(CCN5CCC(OC)C5)c4)cc3C3(CC3)C2=O)c1F (stereo not shown) [Example 161, 2′-(2,6-difluoro-3,5-dimethoxyphenyl)-6′-(1-(2-(3-methoxypyrrolidin-1-yl)ethyl)-1H-pyrazol-4-yl)-1′H-spiro[cyclopropane-1,4′-[2,7]naphthyridin]-3′(2′H)-one] | >5 | >3 |
| COc1cc(OC)c(F)c(N2Cc3cnc(-c4cn(C)nc4C)cc3N(c3ccc4nc(C)oc4c3)C2=O)c1F [Example 75, 3-(2,6-difluoro-3,5-dimethoxyphenyl)-7-(1,3-dimethyl-1H-pyrazol-4-yl)-1-(2-methylbenzo[d]oxazol-6-yl)-3,4-dihydropyrido[4,3-d]pyrimidin-2(1H)-one] | >5 | >3 |
| COc1cc(OC)c(F)c(N2Cc3cnc(-c4cn(C)nc4C)cc3N(c3cc(F)cc(C#N)c3)C2=O)c1F [Example 78, 3-(3-(2,6-difluoro-3,5-dimethoxyphenyl)-7-(1,3-dimethyl-1H-pyrazol-4-yl)-2-oxo-3,4-dihydropyrido[4,3-d]pyrimidin-1(2H)-yl)-5-fluorobenzonitrile] | >5 | >3 |
| CCN1C(=O)N(c2c(F)c(OC)cc(OC)c2F)Cc2cnc(-c3ccc(CN4CC[C@H](C#N)C4)cc3)cc21 [Example 25, (S)-1-(4-(3-(2,6-difluoro-3,5-dimethoxyphenyl)-1-ethyl-2-oxo-1,2,3,4-tetrahydropyrido[4,3-d]pyrimidin-7-yl)benzyl)pyrrolidine-3-carbonitrile] | >5 | >5 |
| COc1cc(OC)c(F)c(N2Cc3cnc(-c4cnn(C5CCN(C(C)=O)C5)c4)cc3C3(CC3)C2=O)c1F (stereo not shown) [Example 150, 6′-(1-(1-acetylpyrrolidin-3-yl)-1H-pyrazol-4-yl)-2′-(2,6-difluoro-3,5-dimethoxyphenyl)-1′H-spiro[cyclopropane-1,4′-[2,7]naphthyridin]-3′(2′H)-one] | >5 | >5 |
| COc1cc(OC)c(F)c(N2Cc3cnc(-c4cn(C)nc4C)cc3N(C3CCOC3)C2=O)c1F (stereo not shown) [Example 33, 3-(2,6-difluoro-3,5-dimethoxyphenyl)-7-(1,3-dimethyl-1H-pyrazol-4-yl)-1-(tetrahydrofuran-3-yl)-3,4-dihydropyrido[4,3-d]pyrimidin-2(1H)-one] | >5 | >5 |
| CCN1C(=O)N(c2c(F)c(OC)cc(OC)c2F)Cc2cnc(-c3ccccc3)cc21 [Example 22, 3-(2,6-difluoro-3,5-dimethoxyphenyl)-1-ethyl-7-phenyl-3,4-dihydropyrido[4,3-d]pyrimidin-2(1H)-one] | >5 | – |
| COc1cc(OC)c(F)c(N2Cc3cnc(-c4cnn(C5(C#N)CCC5)c4C)cc3C3(CC3)C2=O)c1F [Example 149, 1-(4-(2′-(2,6-difluoro-3,5-dimethoxyphenyl)-3′-oxo-2′,3′-dihydro-1′H-spiro[cyclopropane-1,4′-[2,7]naphthyridine]-6′-yl)-5-methyl-1H-pyrazol-1-yl)cyclobutanecarbonitrile] | >5 | >3 |
| CCN1C(=O)N(c2c(F)c(OC)cc(OC)c2F)Cc2cnc(-c3ccc(C4(C#N)CCC4)nc3)cc21 [Example 27, 1-(5-(3-(2,6-difluoro-3,5-dimethoxyphenyl)-1-ethyl-2-oxo-1,2,3,4-tetrahydropyrido[4,3-d]pyrimidin-7-yl)pyridin-2-yl)cyclobutanecarbonitrile] | >10 | >10 |
| COC(=O)N1CCC(N2C(=O)N(c3c(F)c(OC)cc(OC)c3F)Cc3cnc(-c4cn(C)nc4C)cc32)CC1 [Example 122, Methyl 4-(3-(2,6-difluoro-3,5-dimethoxyphenyl)-7-(1,3-dimethyl-1H-pyrazol-4-yl)-2-oxo-3,4-dihydropyrido[4,3-d]pyrimidin-1(2H)-yl)piperidine-1-carboxylate] | >5 | >5 |
